# Measurements published in ChEMBL document CHEMBL3112568, “Synthesis, antifungal activities and molecular docking studies of novel 2-(2,4-difluorophenyl)-2-hydroxy-3-(1H-1,2,4-triazol-1-yl)propyl dithiocarbamates” (2014).
# Experiments:
# Type in all cases: functional
# Nannizzia gypsea = assay: Antifungal activity against Microsporum gypseum by micro-broth dilution method
# Trichophyton rubrum = assay: Antifungal activity against Trichophyton rubrum by micro-broth dilution method
# Nakaseomyces glabratus = assay: Antifungal activity against Candida glabrata by micro-broth dilution method
# Aspergillus fumigatus = assay: Antifungal activity against Aspergillus fumigatus by micro-broth dilution method
# Candida parapsilosis = assay: Antifungal activity against Candida parapsilosis by micro-broth dilution method; conditions: Lodderomyces parapsilosis
# Cryptococcus neoformans = assay: Antifungal activity against Cryptococcus neoformans after 72 hrs by micro-broth dilution method
# Candida albicans [1] = assay: Antifungal activity against Candida albicans SC5314 after 24 hrs by micro-broth dilution method; conditions: SC5314, 24 h
# Candida albicans [2] = assay: Antifungal activity against Candida albicans Y0109 after 24 hrs by micro-broth dilution method; conditions: Y0109, 24 h
MIC80 (Nannizzia gypsea),MIC80 (Trichophyton rubrum),MIC80 (Nakaseomyces glabratus),MIC80 (Aspergillus fumigatus),MIC80 (Candida parapsilosis),MIC80 (Cryptococcus neoformans),MIC80 (Candida albicans [1]),MIC80 (Candida albicans [2]),Compound
4 µg/mL,1 µg/mL,≤ 0.125 µg/mL,8 µg/mL,0.25 µg/mL,0.25 µg/mL,≤ 0.125 µg/mL,≤ 0.125 µg/mL,CN1CCN(C(=S)SCC(O)(Cn2cncn2)c2ccc(F)cc2F)CC1 (racemic)
64 µg/mL,64 µg/mL,4 µg/mL,> 64 µg/mL,2 µg/mL,64 µg/mL,0.5 µg/mL,0.5 µg/mL,C=CCNC(=S)SCC(O)(Cn1cncn1)c1ccc(F)cc1F (racemic)
4 µg/mL,8 µg/mL,≤ 0.125 µg/mL,8 µg/mL,0.5 µg/mL,0.25 µg/mL,≤ 0.125 µg/mL,≤ 0.125 µg/mL,CCN(CC)C(=S)SCC(O)(Cn1cncn1)c1ccc(F)cc1F (racemic)
